# From patent US4387238A, “Epoxysuccinamic acid compounds” (Taisho Pharmaceutical Co., Ltd., priority 1978, dated 1983)
# Target: T1, papain (Carica papaya, UniProt P00784)
# T1 construct: purchased Sigma Chem. Co
# T1 sequence (P00784 134-345): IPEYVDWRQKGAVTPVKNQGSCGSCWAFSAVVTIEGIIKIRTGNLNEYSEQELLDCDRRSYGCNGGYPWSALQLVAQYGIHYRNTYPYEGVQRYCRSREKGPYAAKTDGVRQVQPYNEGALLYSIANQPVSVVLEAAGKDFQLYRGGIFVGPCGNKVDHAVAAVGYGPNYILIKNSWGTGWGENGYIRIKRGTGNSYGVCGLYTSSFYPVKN
# Assay: Papain inhibitory activity (milk casein proteolysis)
# Assay type: biochemical
# Parameters: unit not given beside the values
# Conditions: amount of inhibitor for 50% inhibition; pH 6.8, 40° C., casein substrate
# Procedure: Papain inhibitory activity of the compounds of the present invention was assayed as follows: To 0.5 ml of a solution of papain (80 μg/ml, Sigma Chem. Co., 2x, cry.), were added 0.25 ml of 40 mM cysteine dissolved in 20 mM disodium ethylenediamine tetraacetic acid solution adjusted pH to 6.8 with sodium hydroxide and 0.25 ml of 33 mM phosphate buffer (pH 6.8) with or without inhibitor. After incubation for 15 minutes at 40° C., the resulting mixture was added to 5 ml of 1% milk casein solution in the same buffer as described above, and further incubated for 10 minutes at 40° C. Then the mixture was mixed with 5 ml of 0.44 M trichloroacetic acid solution and followed by filtration with a sheet of Toyo filter paper No. 4.
# The extinction of the filtrate was read at 280 nm. The percent inhibition was calculated from the formula, 100×(B-A)/B; wherein B stands for the absorbance without inhibitor and A for the absorbance with inhibitor. The compound Nos. in Table 2 are as defined in Examples as described hereinafter.
row,SMILES,ID50
1,"CCOC(=O)[C@@H]1O[C@H]1C(=O)Nc1cccc(C(F)(F)F)c1 (relative stereo) [Compound No. 2, ethyl N-3'-trifluoromethylphenyl-2,3-epoxysuccinamate]",40.30 γ
2,"CCOC(=O)[C@@H]1O[C@H]1C(=O)Nc1cccc(C(C)=O)c1 (relative stereo) [Compound No. 3, ethyl N-3'-acetylphenyl-2,3-epoxysuccinamate]",34.72 γ
3,"CCOC(=O)[C@@H]1O[C@H]1C(=O)Nc1ccccc1O (relative stereo) [Compound No. 4, ethyl N-2'-hydroxyphenyl-2,3-epoxysuccinamate]",138.88 γ
4,"CCOC(=O)[C@@H]1O[C@H]1C(=O)Nc1ccc(Br)cc1 (relative stereo) [Compound No. 6, ethyl N-4'-bromophenyl-2,3-epoxysuccinamate]",25.51 γ
5,"CCOC(=O)c1ccccc1NC(=O)[C@@H]1O[C@H]1C(=O)OCC (relative stereo) [Compound No. 7, ethyl N-2'-carboethoxyphenyl-2,3-epoxysuccinamate]",105.93 γ
6,"CCOC(=O)[C@@H]1O[C@H]1C(=O)Nc1c(Cl)cccc1Cl (relative stereo) [Compound No. 8, ethyl N-2',6'-dichlorophenyl-2,3-epoxysuccinamate]",208.33 γ
7,"CCOC(=O)[C@@H]1O[C@H]1C(=O)Nc1c(Br)cc(Br)cc1Br (relative stereo) [Compound No. 9, ethyl N-2',4',6'-tribromophenyl-2,3-epoxysuccinamate]",120.19 γ
8,"CCOC(=O)[C@@H]1O[C@H]1C(=O)Nc1cccc(F)c1 (relative stereo) [Compound No. 10, ethyl N-3'-fluorophenyl-2,3-epoxysuccinamate]",32.05 γ
9,"CCOC(=O)[C@@H]1O[C@H]1C(=O)Nc1ccccn1 (relative stereo) [Compound No. 11, ethyl N-2'-pyridinyl-2,3-epoxysuccinamate]",25.05 γ
10,"CCOC(=O)[C@@H]1O[C@H]1C(=O)Nc1cccc2cccnc12 (relative stereo) [Compound No. 12, ethyl N-8'-quinolinyl-2,3-epoxysuccinamate]",20.16 γ
11,"CCOC(=O)[C@@H]1O[C@H]1C(=O)NCc1ccccc1 (relative stereo) [Compound No. 13, ethyl N-benzyl-2,3-epoxysuccinamate]",13.30 γ
12,"CCOC(=O)[C@@H]1O[C@H]1C(=O)NCc1ccco1 (relative stereo) [Compound No. 14, ethyl N-furfuryl-2,3-epoxysuccinamate]",67.57 γ
13,"CCOC(=O)[C@@H]1O[C@H]1C(=O)NCCc1ccccc1 (relative stereo) [Compound No. 15, ethyl N-phenethyl-2,3-epoxysuccinamate]",26.04 γ
14,"CCCNC(=O)[C@@H]1O[C@H]1C(=O)OCC (relative stereo) [Compound No. 16, ethyl N-propyl-2,3-epoxysuccinamate]",22.73 γ
15,"CCOC(=O)[C@@H]1O[C@H]1C(=O)NCCC(C)C (relative stereo) [Compound No. 17, ethyl N-isoamyl-2,3-epoxysuccinamate]",28.41 γ
16,"CCOC(=O)[C@@H]1O[C@H]1C(=O)NC1CCCC1 (relative stereo) [Compound No. 18, ethyl N-cyclopentyl-2,3-epoxysuccinamate]",22.36 γ
17,"CCOC(=O)[C@@H]1O[C@H]1C(=O)NC1CCCCC1 (relative stereo) [Compound No. 19, ethyl N-cyclohexyl-2,3-epoxysuccinamate]",20.83 γ
18,"CCOC(=O)[C@@H]1O[C@H]1C(=O)NCC1CCCCC1 (relative stereo) [Compound No. 20, ethyl N-cyclohexanemethyl-2,3-epoxysuccinamate]",20.49 γ
19,CCOC(=O)[C@@H]1O[C@H]1C(=O)N1CCOCC1 (relative stereo) [Compound No. 21],93.28 γ
20,"CCOC(=O)[C@@H]1O[C@H]1C(=O)N1CCSCC1 (relative stereo) [Compound No. 22, ethyl N-thiadiethylene-2,3-epoxysuccinamate]",95.01 γ
21,"CCOC(=O)[C@@H]1O[C@H]1C(=O)N1CCN(C)CC1 (relative stereo) [Compound No. 23, ethyl N-N'-methylaminodiethylene-2,3-epoxysuccinamate]",868.05 γ
22,"O=C(Nc1ccc(I)cc1)[C@@H]1O[C@H]1C(=O)OC1CCCC1 (relative stereo) [Compound No. 24, cyclopentyl N-4'-iodophenyl-2,3-epoxysuccinamate]",3.47 γ

row,SMILES,ID50
1,"O=C(Nc1ccccc1)[C@@H]1O[C@H]1C(=O)OCCC1CCCC1 (relative stereo) [Compound No. 26, 2'-cyclopentylethyl N-phenyl-2,3-epoxysuccinamate]",2.08 γ
2,"O=C(Nc1ccccc1)[C@@H]1O[C@H]1C(=O)OCCCC1CCCCC1 (relative stereo) [Compound No. 27, 3'-cyclohexylpropyl N-phenyl-2,3-epoxysuccinamate]",3.05 γ
3,"O=C(Nc1ccccc1)[C@@H]1O[C@H]1C(=O)Oc1ccccc1 (relative stereo) [Compound No. 28, phenyl N-phenyl-2,3-epoxysuccinamate]",6.41 γ
4,"COc1ccccc1NC(=O)[C@@H]1O[C@H]1C(=O)OCc1ccccc1 (relative stereo) [Compound No. 29, benzyl N-2'-methoxyphenyl-2,3-epoxysuccinamate]",2.91 γ
5,"C=CCOC(=O)[C@@H]1O[C@H]1C(=O)Nc1ccccc1 (relative stereo) [Compound No. 30, allyl N-phenyl-2,3-epoxysuccinamate]",3.68 γ
6,"CCOC(=O)[C@@H]1O[C@H]1C(=O)N(C)CC1CCCCC1 (relative stereo) [Compound No. 32, ethyl N-methyl-N-cyclohexanemethyl-2,3-epoxysuccinamate]",71.40 γ
7,"COC(=O)[C@@H]1O[C@H]1C(=O)Nc1ccccc1C (relative stereo) [Compound No. 35, Methyl N-2'-methylphenyl-2,3-epoxysuccinamate]",16.52 γ
8,"CCCOC(=O)[C@@H]1O[C@H]1C(=O)Nc1ccc(I)cc1 (relative stereo) [Compound No. 36, Propyl N-4'-iodophenyl-2,3-epoxysuccinamate]",4.04 γ
9,"COc1ccccc1NC(=O)[C@H]1O[C@@H]1C(=O)OC(C)C (relative stereo) [Compound No. 37, Isopropyl N-2'-methoxyphenyl-2,3-epoxysuccinamate]",5.81 γ
10,"CC(C)COC(=O)[C@H]1O[C@@H]1C(=O)NCc1ccco1 (relative stereo) [Compound No. 39, Isobutyl N-furfuryl-2,3-epoxysuccinamate]",3.08 γ
11,"CC#CCOC(=O)[C@H]1O[C@@H]1C(=O)NCC (relative stereo) [Compound No. 41, 2'-Butynyl N-ethyl-2,3-epoxysuccinamate]",15.23 γ
12,"CC#CCOC(=O)[C@@H]1O[C@H]1C(=O)NCc1cccs1 (relative stereo) [Compound No. 42, 2'-Butynyl N-thenyl-2,3-epoxysuccinamate]",14.15 γ
13,"CC(C)CCOC(=O)[C@H]1O[C@@H]1C(=O)Nc1ccccc1 (relative stereo) [Compound No. 43, Isoamyl N-phenyl-2,3-epoxysuccinamate]",3.01 γ
14,"O=C(NC1CCCCC1)[C@H]1O[C@@H]1C(=O)OC1CCCCC1 (relative stereo) [Compound No. 44, Cyclohexyl N-cyclohexyl-2,3-epoxysuccinamate]",3.14 γ
15,"O=C(Nc1ccccc1)[C@H]1O[C@@H]1C(=O)OC1C=CCC1 (relative stereo) [Compound No. 46, 2'-Cyclopentenyl N-phenyl-2,3-epoxysuccinamate]",2.98 γ
16,"O=C(NC1CCCC1)[C@H]1O[C@@H]1C(=O)Oc1ccccc1 (relative stereo) [Compound No. 47, Phenyl N-cyclopentyl-2,3-epoxysuccinamate]",3.64 γ
17,"O=C(Nc1cccc(F)c1)[C@H]1O[C@@H]1C(=O)OCc1ccccc1 (relative stereo) [Compound No. 49, Benzyl N-3'-fluorophenyl-2,3-epoxysuccinamate]",3.94 γ
18,"COC(=O)[C@H]1O[C@@H]1C(=O)Nc1ccccc1 (relative stereo) [Compound No. 50, methyl N-phenyl-2,3-epoxysuccinamate]",16.95 γ
19,"CCOC(=O)[C@H]1O[C@@H]1C(=O)Nc1cccc(C)c1 (relative stereo) [Compound No. 51, ethyl N-3'-methylphenyl-2,3-epoxysuccinamate]",18.66 γ
20,"CCCCOC(=O)[C@H]1O[C@@H]1C(=O)Nc1ccccc1 (relative stereo) [Compound No. 52, butyl N-phenyl-2,3-epoxysuccinamate]",5.32 γ
21,"O=C(Nc1ccccc1)[C@H]1O[C@@H]1C(=O)OCC1CC=CCC1 (relative stereo) [Compound No. 53, 3'-cyclohexenemethyl N-phenyl-2,3-epoxysuccinamate]",1.63 γ
22,"CCNC(=O)[C@H]1O[C@@H]1C(=O)OC (relative stereo) [Compound No. 54, methyl N-ethyl-2,3-epoxysuccinamate]",10.07 γ
